Positions count from the first letter of the chain named.
Assays:
[1] = target: T1, purified human AGT (Homo sapiens, UniProt P16455); assay: Inactivation of purified human AGT; format: biochemical; conditions: Table 2 footnotes; read-out: ED50 with purified human AGT
T1 sequence (P16455 1-207): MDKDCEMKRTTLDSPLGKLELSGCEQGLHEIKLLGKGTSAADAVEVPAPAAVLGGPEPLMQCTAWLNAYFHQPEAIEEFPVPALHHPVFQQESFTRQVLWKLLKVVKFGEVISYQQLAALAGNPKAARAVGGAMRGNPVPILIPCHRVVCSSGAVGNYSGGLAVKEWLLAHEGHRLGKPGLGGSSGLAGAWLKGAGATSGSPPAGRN

[2] = Behaviour in solution at pH 13 (noted with UV spectra); format: physicochemical
[3] = target: T2, O^6-alkylguanine-DNA alkyltransferase (AGT) (Homo sapiens, UniProt P16455); assay: AGT inactivation in intact HT29 cells; conditions: for ratio of ED50 values in cell-free extracts/intact cells: HT29
T2 sequence (P16455 1-207): T1 sequence (P16455 1-207)
Experimental: (§1) The data represent the dose of compound required to produce 50% inactivation in cell-free extracts upon incubation for 30 min or in cells upon incubation for 4 hr.

[4] = target: T2, O^6-alkylguanine-DNA alkyltransferase (AGT); assay: AGT inactivation in HT29 cell-free extract
Experimental: as §1

[5] = target: T3, Control alkyltransferase (Homo sapiens, UniProt P16455); assay: Inhibition of alkyltransferase proteins, control protein; format: biochemical; conditions: concentration to inactivate 50% of the activity in 30 minutes, read-out: ED50 value
T3 sequence (P16455 1-207): T1 sequence (P16455 1-207)

[6] = target: T4, alkyltransferase P140A (Homo sapiens, UniProt P16455, P140A); assay: Inhibition of mutant alkyltransferase proteins, P140A; format: biochemical
T4 construct: made in house
T4 sequence (P16455 1-207 P140A): T1 sequence (P16455 1-207) with P140A

[7] = target: T5, alkyltransferase P138A/P140A (Homo sapiens, UniProt P16455, P138A/P140A); assay: Inhibition of mutant alkyltransferase proteins, P138A/P140A; format: biochemical
T5 construct: made in house
T5 sequence (P16455 1-207 P138A/P140A): T1 sequence (P16455 1-207) with P138A, P140A

[8] = target: T6, alkyltransferase G156A (Homo sapiens, UniProt P16455, G156A); assay: Inhibition of mutant alkyltransferase proteins, G156A; format: biochemical
T6 construct: made in house
T6 sequence (P16455 1-207 G156A): T1 sequence (P16455 1-207) with G156A

[9] = tested on: mutant alkyltransferase; assay: Inactivation of mutant (resistant) alkyltransferase, overall statements; format: biochemical, human; conditions: intracellular concentration, extrapolated from Table 6
[10] = tested on: HT-29 colon cancer cells; assay: Killing of HT-29 colon cancer cells by BCNU combined with AGT inactivators (colony formation); conditions: for Colony Formation per 1000 cells: HT-29
Experimental: (§2) Cells were treated for 2 h with AGT inactivator prior to exposure to BCNU.

[11] = tested on: MCF-71 breast cancer cells; assay: Killing of MCF-71 breast cancer cells by BCNU combined with AGT inactivators (colony formation)
Experimental: as §2

[12] = tested on: DU-145 prostate cancer cells; assay: Killing of DU-145 prostate cancer cells by BCNU combined with AGT inactivators (colony formation)
Experimental: as §2

[13] = target: T2, O^6-alkylguanine-DNA alkyltransferase (AGT); set-up: endogenous in cells; host or cells: HT29 human colon tumor cells; conditions: text b35, comparison value of Table 1; cited from earlier work

For CC(C)(C)C(=O)OCn1nnc2nc(N)nc(OCc3ccccc3)c21 [Compound 9, 8-Aza-O^6-benzyl-7-(pivaloyloxymethyl)guanine], the EC50 [1] was 2000 nM, the “stability at pH 13” value [2] was “decomposes to 8-aza-O^6-benzylguanine” and the melting point was 153 to 154 °C. For the same molecule, the EC50 [3] was 160 nM and the EC50 [4] was 110 nM.
In the case of CC(C)(C)C(=O)OCn1c(Br)nc2c(OCc3ccccc3)nc(N)nc21 [Compound 10b, O^6-Benzyl-8-bromo-9-(pivaloyloxymethyl)guanine], the EC50 [1] is reported as > 100000 nM, the “stability at pH 13” value [2] is reported as “decomposes to O^6-benzyl-8-bromoguanine” and the melting point is reported as 217 to 218 °C. For the same molecule, the EC50 [3] was 50 nM and the EC50 [4] was 80 nM.
For CC(C)(C)C(=O)OCn1nnc2c(OCc3ccccc3)nc(N)nc21 [Compound 8b, 8-Aza-O^6-benzyl-9-(pivaloyloxymethyl)guanine], the EC50 [1] was 4000 nM, the “stability at pH 13” value [2] was “decomposes to 8-aza-O^6-benzylguanine” and the melting point was 119 to 120 °C. It also gave an EC50 [3] of 230 nM and an EC50 [4] of 280 nM.
In the case of Nc1nc(N)c(N=O)c(OCc2ccccc2)n1 [Compound 3d, 2,4-diamino-6-benzyloxy-5-nitrosopyrimidine], the EC50 [5] is reported as 50 nM, the EC50 ([6]; P140A, concentration to inactivate 50% of the activity in 30 minutes, read-out: ED50 value) is reported as 100 nM and the EC50 ([7]; P138A/P140A, concentration to inactivate 50% of the activity in 30 minutes, read-out: ED50 value) is reported as 300 nM. For the same molecule, the EC50 ([8]; G156A, concentration to inactivate 50% of the activity in 30 minutes, read-out: ED50 value) was 1000 nM, the “concentration needed to be effective at inactivating resistant alkyltransferase” value [9] was “greater than 5 μM” and the EC50 [3] was 20 nM. The EC50 [4] was 60 nM, the “AGT inactivating activity in HT29 cell-free extracts, in words” value ([4]; comparison) was “the most active AGT inactivators tested to date” and the “enhancement of BCNU cytotoxicity, in words” value ([10]; BCNU 40 μM, statement covers HT29, DU-145 and MCF-71 cells (Tables 3-5)) was “similarly effective at a 4-fold lower dose”. The “Colony Formation per 1000 cells” value ([10]; inactivator 1 μM, BCNU 40 μM) was 19 ± 4 per 1000 cells, the “Colony Formation per 1000 cells” value ([10]; inactivator […], BCNU 40 μM) was <1 per 1000 cells and the “Colony Formation per 1000 cells” value ([11]; inactivator […], BCNU 40 μM) was 2 ± 1 per 1000 cells. For the same molecule, the “Colony Formation per 1000 cells” value ([12]; inactivator 1 μM, BCNU 40 μM) was 25 ± 4 per 1000 cells.
For Nc1nc(OCc2ccccc2)c2nn[nH]c2n1 [Compound 2, 8-Aza-O^6-benzylguanine], the EC50 [3] was 60 nM, the EC50 [4] was 70 nM and the “Colony Formation per 1000 cells” value ([10]; inactivator 1 μM, BCNU 40 μM) was 423 ± 42 per 1000 cells. For the same molecule, the “Colony Formation per 1000 cells” value ([10]; inactivator 10 μM, BCNU 40 μM) was 2 ± 1 per 1000 cells, the “Colony Formation per 1000 cells” value ([10]; inactivator 10 μM, BCNU none) was 537 ± 48 per 1000 cells and the “Colony Formation per 1000 cells” value ([11]; inactivator 10 μM, BCNU 40 μM) was 2 ± 1 per 1000 cells. The “Colony Formation per 1000 cells” value ([11]; inactivator 10 μM, BCNU none) was 483 ± 27 per 1000 cells, the “Colony Formation per 1000 cells” value ([12]; inactivator 1 μM, BCNU 40 μM) was 248 ± 21 per 1000 cells and the “Colony Formation per 1000 cells” value ([12]; inactivator 10 μM, BCNU 40 μM) was 28 ± 5 per 1000 cells. For the same molecule, the “Colony Formation per 1000 cells” value ([12]; inactivator 10 μM, BCNU none) was 452 ± 72 per 1000 cells.
In the case of CC(C)(C)C(=O)OCn1cnc2nc(N)nc(OCc3ccccc3)c21 [Compound 12, O^6-benzyl-7-(pivaloyloxymethyl)guanine], the EC50 [1] is reported as > 100000 nM, the “stability at pH 13” value [2] is reported as “decomposes to O^6-benzylguanine” and the EC50 [3] is reported as 300 nM. For the same molecule, the EC50 [4] was 9000 nM.
In the case of Nc1nc(OCc2ccccc2)c2nc(C(F)(F)F)[nH]c2n1 [Compound 1e, O^6-Benzyl-8-trifluoromethylguanine], the melting point is reported as 214 to 216 °C (dec.), the EC50 [3] is reported as 250 nM and the “ratio of ED50 values in cell-free extracts/intact cells” value [3] is reported as 1.6. The EC50 [4] was 400 nM.
For Nc1nc(OCc2ccccc2)c2nc[nH]c2n1 [O^6-benzylguanine, reference compound], the “increase in resistance to inactivation” value ([6]; P140A versus control protein) was 20 fold, the “increase in resistance to inactivation” value ([7]; P138A/P140A versus control protein) was 88 fold and the “increase in resistance to inactivation” value ([8]; G156A versus control protein) was 240 fold. The “concentration needed to be effective at inactivating resistant alkyltransferase” value [9] was “greater than 200 μM”, the “ED50 value for inactivation of AGT in HT29 cell extracts” value [13] was 200000 nM and the “Colony Formation per 1000 cells” value ([10]; inactivator 1 μM, BCNU 40 μM) was 277 ± 25 per 1000 cells. For the same molecule, the “Colony Formation per 1000 cells” value ([10]; inactivator 10 μM, BCNU 40 μM) was 13 ± 6 per 1000 cells, the “Colony Formation per 1000 cells” value ([10]; inactivator 10 μM, BCNU none) was 431 ± 33 per 1000 cells and the “Colony Formation per 1000 cells” value ([10]; inactivator […], BCNU 40 μM) was 38 ± 15 per 1000 cells. For the same molecule, the “Colony Formation per 1000 cells” value ([11]; inactivator 10 μM, BCNU 40 μM) was 4 ± 2 per 1000 cells, the “Colony Formation per 1000 cells” value ([11]; inactivator 10 μM, BCNU none) was 455 ± 63 per 1000 cells and the “Colony Formation per 1000 cells” value ([11]; inactivator […], BCNU 40 μM) was 12 ± 6 per 1000 cells. For the same molecule, the “Colony Formation per 1000 cells” value ([12]; inactivator 1 μM, BCNU 40 μM) was 299 ± 18 per 1000 cells, the “Colony Formation per 1000 cells” value ([12]; inactivator 10 μM, BCNU 40 μM) was 28 ± 5 per 1000 cells and the “Colony Formation per 1000 cells” value ([12]; inactivator 10 μM, BCNU none) was 462 ± 68 per 1000 cells.
In the case of Cn1c(C(F)(F)F)nc2c(OCc3ccccc3)nc(N)nc21 [Compound 7, O^6-Benzyl-8-trifluoromethyl-9-methylguanine], the melting point is reported as 86 to 89 °C, the EC50 [3] is reported as 400 nM and the “ratio of ED50 values in cell-free extracts/intact cells” value [3] is reported as 6.3. The “AGT inactivating activity in intact HT29 cells, in words” value ([3]; comparison) was “significantly higher than their activity in cell-free extracts” and the EC50 [4] was 2500 nM.

Reference: patent US6436945B2, “Substituted O6-benzyl-8-aza-guanines” (The United States of America as represented by the of …, priority 1994, dated 2002)
